In patent US20230099441A1, “HETEROCYCLIC COMPOUND, APPLICATION THEREOF, AND COMPOSITION CONTAINING SAME” (GenEros Biopharma Ltd., priority 2019, published 2023):

How the values were obtained:
[1] = test system: STAT5 Y694 phosphorylation; experiment: Protein electrophoresis and blotting of STAT5 Y694 phosphorylation in Jurkat cells stimulated with human interferon beta; format: cell-based; conditions: for Example of Effect 1: Inhibiting Ability (Protein Electrophoresis and Blotting): observed pSTAT5 bands at 10 μM and 100 μM; for Inhibiting Ratio (0% for vehicle control): 1 hour pretreatment, 20 ng/ml human interferon beta 30 minutes, pSTAT5/GAPDH
Summary of the method: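 Serum-free Jurkat cells pretreated with compound 1 h, then stimulated with 20 ng/ml human interferon beta for 30 min at 37° C. pSTAT5 measured by western blot with chemiluminescence, normalized to GAPDH and expressed as percent of DMSO control.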

[2] = test system: STAT5 Y694 phosphorylation; experiment: HTRF experiment: STAT5 Y694 phosphorylation in Hela cells stimulated with human interferon beta; format: cell-based; conditions: 2 hours pretreatment, 10 nM human interferon beta 30 minutes
Experimental: Example of Effect 3: HTRF Experiment
Human Interferon 3 (IFN-0) (GenScript, Cat #P01574), STAT5 Y694 phosphorylation detection kit (STAT5 phospho-Y694 kit) (Cisbio; Cat #64AT5PEG).
Hela cells (ATCC American Standard Culture Center, CCL-2) were cultured in a 96-well plate at a density of 3×10^4 cells/well with DMEM medium containing 5% fetal bovine serum and maintained at 37° C. in a humidified incubator with 5% carbon dioxide overnight. On the second day, the original DMEM medium in the 96-well plate was sucked dry, and an equal volume of medium containing different concentrations of compounds (the mother liquor of the compound prepared by dimethyl sulfoxide was diluted in the medium at the required concentration) was added for pretreatment for 2 hours, and then it was placed in an incubator at 37° C. Then human interferon beta with a final concentration of 10 nM was added to stimulate, and it was gently shaken to mix well and then placed in an incubator at 37° C. for 30 minutes.
The medium was removed, an appropriate volume of PBS was added to wash, and then it was sucked dry. Then 40 microliters of 1× Lysis Buffer was added to each well and it was stood for 30 minutes at room temperature (1 ml 1× lysate preparation: 740 μl ddH2O was added to 250 μl 4× lysate and 10 μl Blocking reagent and it was mixed thoroughly). After 30 minutes, the cells were repeatedly blown until the lysis solution was not viscous (avoiding blowing out bubbles) to achieve sufficient lysis.
After overnight incubation, the signals of 665 nm and 620 nm were detected in a multifunctional microplate reader. The calculation formula for the detection of STAT5 Y694 phosphorylation is: Ratio=[(signal 665 nm)/(signal 620 nm)]×10^4. Treatment with dimethyl sulfoxide alone was the baseline control (Ratiobase), and the human interferon β stimulation without addition of the compound was the STAT5 Y694 full phosphorylation activation control (Ratiostimulation), the inhibition rate of STAT5 Y694 phosphorylation of different samples was normalized: Inhibition rate=[1−(RatioExperiment−Ratiobase)/(Ratiostimulation−Ratiobase)]*100.

| SMILES | Example of Effect 1: Inhibiting Ability (Protein Electrophoresis and Blotting) [1] | Example of Effect 3: Inhibiting Ratio@10 μM (HTRF Experiment) [2] [%] | Inhibiting Ratio (0% for vehicle control) ([1]; 1 μM) [%] | Inhibiting Ratio (0% for vehicle control) ([1]; 10 μM) [%] | Inhibiting Ratio (0% for vehicle control) ([1]; 100 μM) [%] |
| --- | --- | --- | --- | --- | --- |
| O=C(/N=c1\[nH]c2cccc(C(F)(F)F)c2n1C1CCN(C(=O)Cc2ccc3ncccc3c2)CC1)c1ccccc1 [GEN1-172] | − | 13.83 |  |  |  |
| O=C1CN(C2CCN(C(=O)Cc3ccc(C(F)(F)F)cc3)CC2)c2cccc(C(F)(F)F)c2N1 [GEN1-134, 8-(trifluoromethyl)-4-(1-(2-(4-(trifluoromethyl)phenyl)acetyl)piperidin-4-yl)-3,4-dihydroquinoxaline-2(1H)-one] | − | 3.06 |  |  |  |
| O=C(Cc1ccc(Br)cc1)N1CCC(n2c(=O)[nH]c3cccc(C(F)(F)F)c32)CC1 [GEN1-157, 1-(1-(2-(4-bromophenyl)acetyl)piperidin-4-yl)-7-(trifluoromethyl)-1H-benzo[d]imidazol-2(3H)-one] | + | 28.83 |  |  |  |
| COc1ccc2[nH]c(=O)n(C3CCN(C(=O)Cc4ccc(C(F)(F)F)cc4)CC3)c2c1 [GEN1-011, 6-methoxy-1-(1-(2-(4-(trifluoromethyl)phenyl)acetyl)piperidin-4-yl)-1H-benzo[d]imidazole-2 (3H)-one] | + | 20.49 |  |  |  |
| O=C(Cc1ccc2ncccc2c1)N1CCC(n2c(=O)[nH]c3cccc(C(F)(F)F)c32)CC1 [GEN1-117, 1-(1-(2-(quinolin-6-yl)acetyl)piperidin-4-yl)-7-(trifluoromethyl)-1H-benzo[d]imidazol-2(3H)-one] | ++ | 89.31 |  |  |  |
| O=C(Cc1ccc(C(F)(F)F)cc1)N1CCC(Cn2c(=O)[nH]c3cccc(C(F)(F)F)c32)CC1 [GEN1-174, 7-(trifluoromethyl)-1-((1-(2-(4-(trifluoromethyl)phenyl)acetyl)piperidin-4-yl)methyl)-1H-benzo[d]imidazol-2(3H)-one] | + | 39.65 |  |  |  |
| O=C(Cc1ccc(C(F)(F)F)cc1)N1CCC2(CC1)C(=O)Nc1ccccc12 [GEN1-167, 1′-(2-(4-(trifluoromethyl)phenyl)acetyl)spiro[indoline-3,4′-piperidine]-2-one] | + | 15.57 |  |  |  |
| N#Cc1cccc2[nH]c(=O)n(C3CCN(C(=O)Cc4ccc(C(F)(F)F)cc4)CC3)c12 [GEN1-014, 2-oxo-3-(1-(2-(4-(trifluoromethyl)phenyl)acetyl)piperidin-4-yl)-2,3-dihydro-1H-benzo[d]imidazole-4-carbonitrile] | + | 16.12 | 14.2 | 78.8 | 99.1 |
| CC(=O)Nc1ccccc1NC1CCN(C(=O)Cc2ccc(C(F)(F)F)cc2)CC1 [GEN1-057, N-(2-((1-(2-(4-(trifluoromethyl)phenyl)acetyl)piperidin-4-yl)amino)phenyl)acetamide] | ++ | 66.22 |  |  |  |
| CC(C)(C)c1ccc(CC(=O)N2CCC(n3c(=O)[nH]c4ccccc43)CC2)cc1 [GEN1-031, 1-(1-(2-(4-(tert-butyl)phenyl)acetyl)piperidin-4-yl)-1H-benzo[d]imidazole-2(3H)-one] | + | 0.13 | 19.7 | 38.1 | 98.7 |
| O=C(Cc1ccc(C(F)(F)F)cc1)N1CCC(n2c(=O)[nH]c3cccc([N+](=O)[O-])c32)CC1 [GEN1-091, 7-nitro-1-(1-(2-(4-(trifluoromethyl)phenyl)acetyl)piperidin-4-yl)-1H-benzo[d]imidazol-2(3H)-one] | + | 17.60 |  |  |  |
| O=C(Cc1ccc(C(F)(F)F)cc1)N1CCC(n2c(=O)[nH]c3c(N4CCOCC4)cccc32)CC1 [GEN1-154, 4-morpholino-1-(1-(2-(4-(trifluoromethyl)phenyl)acetyl)piperidin-4-yl)-1H-benzo[d]imidazol-2(3H)-one] | − | 6.10 |  |  |  |
| O=c1[nH]c2ccccc2n1C1CCN(C(=S)Cc2ccc(C(F)(F)F)cc2)CC1 [GEN1-128] | + | 13.88 |  |  |  |
| Nc1nc2ccccc2n1C1CCN(C(=O)Cc2ccc(C(F)(F)F)cc2)CC1 [GEN1-055, 1-(4-(2-amino-1H-benzo[d]imidazol-1-yl)piperidin-1-yl)-2-(4-(trifluoromethyl)phenyl)ethanone] | + | 16.88 | 25.0 | 50.0 | 89.6 |
| O=C(Cc1ccc2ncccc2c1)N1CCC(n2c(=O)[nH]c3ccccc32)CC1 [GEN1-075, 1-(1-(2-(quinolin-6-yl)acetyl)piperidin-4-yl)-1H-benzo[d]imidazol-2(3H)-one] | + | 10.79 |  |  |  |
| O=C(Cc1ccc(C(F)(F)F)cc1)N1CCC2(CC1)C(=O)NCN2c1ccccc1 [GEN1-049, 1-phenyl-8-(2-(4-(trifluoromethyl)phenyl)acetyl)-1,3,8triazaspiro[4.5]decane-4-one] | − | 18.33 |  |  |  |
| O=C(C[C@H]1CC[C@H](C(F)(F)F)CC1)N1CCC(n2c(=O)[nH]c3ccccc32)CC1 [GEN1-108, (trans)-1-(1-(2-(4-(trifluoromethyl)cyclohexyl)acetyl)piperidin-4-yl)-1H-benzo[d]imidazol-2(3H)-one] | + | 38.81 |  |  |  |
| CN(C)c1ccc(CC(=O)N2CCC(n3c(=O)[nH]c4cccc(C(F)(F)F)c43)CC2)cc1 [GEN1-118, 1-(1-(2-(4-(dimethylamino)phenyl)acetyl)piperidin-4-yl)-7-(trifluoromethyl)-1,3-dihydro-2H-benzo[d]imidazol-2-one] | + | 27.57 |  |  |  |
| O=C(Cc1ccc(C(F)(F)F)cc1)N1CCC(n2c(=S)[nH]c3ccccc32)CC1 [GEN1-050, 1-(4-(2-thioxo-2,3-dihydro-1H-benzo[d]imidazol-1-yl)piperidin-1-yl)-2-(4-(trifluoromethyl)phenyl)ethanone] | + | 15.28 |  |  |  |
| O=C(Cc1ccc2ncccc2c1)N1CCCC(n2c(=O)[nH]c3cccc(C(F)(F)F)c32)CC1 (stereo not shown) [GEN1-173, 1-(1-(2-(quinolin-6-yl)acetyl)azacycloheptane-4-yl)-7-(trifluoromethyl)-1,3-dihydro-2H-benzo[d]imidazol-2-one] | + | 50.75 |  |  |  |
